# In patent US10174013B2, “Benzimidazole derivatives as kinase inhibitors” (SELVITA S.A., priority 2012, dated 2019):
# pIC50: −log10 of the molar value. Where a name gives a salt, the structure may show the parent alone. Read-outs that look alike come from different tables or passages of the source.
# Assays:
# Pim-3 = Pim-3 (Homo sapiens (Human), UniProt Q86V86); assay: ADP-Glo Kinase Assay, Pim-3; type: biochemical; conditions: 1 μM compound; for inhibition at 1 µM: read-out: Pim-3 % INH (1 μM)
# Procedure, shortened: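 Buffer was MOPS 5 mM (pH 7.5) with MgCl2, EDTA and DTT; ATP set at apparent Km per kinase. Compounds were diluted in assay buffer to 1000 nM. Kinase-generated ADP was converted to luciferase signal and normalised to percent inhibition.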
# MV4-11 xenograft = MV4-11 xenograft in immunocompromised mice; type: in vivo
# Procedure, shortened: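 MV4-11 leukemic cells engrafted in NOD/scid or SCID/beige mice; oral dosing started at tumor volume approx. 50-200 mm^3, daily QD or BID for 2-3 weeks. Efficacy read as tumor growth inhibition (TGI), tolerability as body weight change (ΔBW).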
# HEL92 cells = assay: Growth inhibition, MTS assay, HEL92; type: cell-based, Human; conditions: MTS cell viability, read-out: HEL92 ED50; for pIC50: Homo sapiens
# CYP3A4 = CYP3A4 (Homo sapiens (Human), UniProt P08684); assay: Cytochrome P450 inhibition, fluorescence, CYP3A4; type: in vitro ADME; conditions: recombinant CYP3A4, fluorescence detection; read-out: CYP inhibition (CYP 3A4 screening, IC50 class)
# Chain of CYP3A4 (P08684 whole entry): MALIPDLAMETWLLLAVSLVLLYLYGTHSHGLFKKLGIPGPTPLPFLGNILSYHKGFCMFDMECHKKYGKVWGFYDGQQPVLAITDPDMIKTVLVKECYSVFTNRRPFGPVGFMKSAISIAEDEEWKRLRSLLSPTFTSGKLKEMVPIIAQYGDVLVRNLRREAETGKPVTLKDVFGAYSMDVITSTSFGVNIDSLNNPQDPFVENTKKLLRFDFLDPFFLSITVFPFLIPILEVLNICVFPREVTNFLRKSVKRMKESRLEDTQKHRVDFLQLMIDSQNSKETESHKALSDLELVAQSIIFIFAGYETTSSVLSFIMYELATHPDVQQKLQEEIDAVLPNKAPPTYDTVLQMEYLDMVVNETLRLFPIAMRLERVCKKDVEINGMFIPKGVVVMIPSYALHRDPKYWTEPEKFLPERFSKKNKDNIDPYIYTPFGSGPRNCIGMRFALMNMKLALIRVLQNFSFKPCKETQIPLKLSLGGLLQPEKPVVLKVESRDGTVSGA
# Procedure, shortened: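 Recombinant human CYP3A4 was incubated at 37 °C for 30–45 min with a fluorogenic probe substrate near apparent Km and serially diluted compound, after ≥10 min preincubation with an NADPH-regenerating system. Fluorescence was read after stopping, with compound autofluorescence measured beforehand and no-inhibitor and pre-stopped blanks as controls.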
# [1] = MV4-11 xenograft, oral, 150 mg/Kg QD
# [2] = MV4-11 xenograft, oral, doses as in Table 3
# [3] = MV4-11 xenograft, oral, 75 mg/Kg BID
# [4] = MV4-11 xenograft, oral, 150 mg/Kg BID
# [5] = MV4-11 xenograft, oral, 100 mg/Kg QD
inhibition at 1 µM (Pim-3) [%],SMILES,TGI (tumor growth inhibition) (MV4-11 xenograft; [1]) [%],ΔBW (body weight change) (MV4-11 xenograft; [1]) [%],TGI (tumor growth inhibition) (MV4-11 xenograft; [2]),pIC50 (HEL92 cells; 72 h),pIC50 (CYP3A4),other results
90,"CC(C)n1c(C2CCNCC2)nc2c([N+](=O)[O-])c(Br)c(Br)cc21 [Example 26A, 5,6-dibromo-4-nitro-2-(piperidin-4-yl)-1-(propan-2-yl)-1H-1,3-benzodiazole]",–,–,–,6.05,< 5.00,"ΔBW (body weight change) (MV4-11 xenograft; MV-4-11 xenograft, 26A 25 mg/Kg BID): −6%; TGI (tumor growth inhibition) (MV4-11 xenograft; MV-4-11 xenograft, 26A 25 mg/Kg BID, 15 days): 77%; ΔBW (body weight change) (MV4-11 xenograft; MV-4-11 xenograft, 26A 50 mg/Kg BID): −3%; TGI (tumor growth inhibition) (MV4-11 xenograft; MV-4-11 xenograft, 26A 50 mg/Kg BID, 15 days): 87%"
> 95,"Cl.O=[N+]([O-])c1c(Br)c(Br)cc2c1nc(N1CCNCC1)n2C1CCCC1 [Example 2D, 5,6-dibromo-1-cyclopentyl-4-nitro-2-(piperazin-1-yl)-1H-1,3-benzodiazole hydrochloride]",88,−3.5,above 87%,5.33,5.48 to 5.96,–
95,CC(C)n1c(N2CC[C@@H](N)C2)nc2c(C#N)c(Br)c(Br)cc21 [Example 1BI],87,3.8,above 87%,5.29,5.48 to 5.96,–
–,CCCn1c(N2CCNCC2)nc2c([N+](=O)[O-])c(Br)c(Br)cc21 [Example 1M],–,–,more than 70%,–,5.48 to 5.96,Pim-3 % INH (1 μM) (Pim-3): 73%; TGI (tumor growth inhibition) (MV4-11 xenograft; [4]): 76%; ΔBW (body weight change) (MV4-11 xenograft; [4]): 9.2%; IC50 (HEL92 cells; 72 hours): 2200 nM
–,CC(C)n1c(N2CCNC[C@H]2C)nc2c([N+](=O)[O-])c(Br)c(Br)cc21 [Example 1AX],–,–,exceeding 97%,–,5.48 to 5.96,Pim-3 % INH (1 μM) (Pim-3): 95%; TGI (tumor growth inhibition) (MV4-11 xenograft; [5]): 97%; ΔBW (body weight change) (MV4-11 xenograft; [5]): −2.2%; IC50 (HEL92 cells; 72 hours): 100 nM

SMILES,inhibition at 1 µM (Pim-3) [%],TGI (tumor growth inhibition) (MV4-11 xenograft; [1]) [%],ΔBW (body weight change) (MV4-11 xenograft; [1]) [%],TGI (tumor growth inhibition) (MV4-11 xenograft; [2]),pIC50 (HEL92 cells; 72 h),pIC50 (CYP3A4),other results
"CC(C)n1c(N2CCNCC2)nc2c([N+](=O)[O-])c(Br)c(Br)cc21 [Example 2A, 5,6-dibromo-4-nitro-2-(piperazin-1-yl)-1-(propan-2-yl)-1H-1,3-benzodiazole hydrochloride]",89,99,−4.4,exceeding 97%,6.15,5.00 to 5.48,–
"CCn1c(N2CCNCC2)nc2c([N+](=O)[O-])c(Br)c(Br)cc21 [Example 1A, 5,6-dibromo-1-ethyl-4-nitro-2-(piperazin-1-yl)-1H-1,3-benzodiazole hydrochloride]",65,–,–,more than 70%,–,5.00 to 5.48,TGI (tumor growth inhibition) (MV4-11 xenograft; [3]): 73%; ΔBW (body weight change) (MV4-11 xenograft; [3]): 5.4%; pIC50 (HEL92 cells; 72 hours): 5.59
